The results in this text go back to patent US20230285377A1, “KCNT1 INHIBITORS AND METHODS OF USE” (Praxis Precision Medicines, Inc., priority 2020, published 2023).

In this assay the target is KCNT1 (KNa1.1, Slack) (Homo sapiens (Human), UniProt Q5JUK3). Briefly: KCNT1-WT-Basal - Patch Clamp Assay. The class given is cell-based. To be noted: tetracycline inducible HEK-TREX cell line; SyncroPatch 384PE automated patch clamp; step to 0 mV; room temperature. The protocol: Inhibition of KCNT1 (KNa1.1, Slack) was evaluated using a tetracycline inducible cell line (HEK-TREX). Currents were recorded using the SyncroPatch 384PE automated, patch clamp system. Pulse generation and data collection were performed with PatchController384 V1.3.0 and DataController384 V1.2.1 (Nanion Technologies). The access resistance and apparent membrane capacitance were estimated using built-in protocols. Current were recorded in perforated patch mode (10 µM escin) from a population of cells. The cells were lifted, triturated, and resuspended at 800,000 cells/ml. The cells were allowed to recover in the cell hotel prior to experimentation. Currents were recorded at room temperature. The external solution contained the following (in mM): NaCl 105, NMDG 40, KC1 4, MgC12 1, CaC12 5 and HEPES 10 (pH = 7.4, Osmolarity ~300 mOsm). The extracellular solution was used as the wash, reference and compound delivery solution. The internal solution contained the following (in mM): NaCl 70, KF 70, KC1 10, EGTA 5, HEPES 5 and Escin 0.01 (pH = 7.2, Osmolarity ~295 mOsm). Escin is made at a 5 mM stock in water, aliquoted, and stored at -20° C. The compound plate was created at 2x concentrated in the extracellular solution. The compound was diluted to 1:2 when added to the recording well. The amount of DMSO in the extracellular solution was held constant at the level used for the highest tested concentration. A holding potential of -80 mV with a 100 ms step to 0 mV was used. Mean current was measured during the step to 0 mV. […] The average mean current from 3 sweeps was calculated and the % inhibition of each compound was calculated. The % Inhibition as a function of the compound concentration was fit with a Hill equation to derive IC50, slope, min and max parameters. If KCNT1 inhibition was less than 50% at the highest tested concentration or if an IC50 could not be calculated, then a percent inhibition was reported in place of the IC50.
Chain of KCNT1 (KNa1.1, Slack) (Q5JUK3 whole entry): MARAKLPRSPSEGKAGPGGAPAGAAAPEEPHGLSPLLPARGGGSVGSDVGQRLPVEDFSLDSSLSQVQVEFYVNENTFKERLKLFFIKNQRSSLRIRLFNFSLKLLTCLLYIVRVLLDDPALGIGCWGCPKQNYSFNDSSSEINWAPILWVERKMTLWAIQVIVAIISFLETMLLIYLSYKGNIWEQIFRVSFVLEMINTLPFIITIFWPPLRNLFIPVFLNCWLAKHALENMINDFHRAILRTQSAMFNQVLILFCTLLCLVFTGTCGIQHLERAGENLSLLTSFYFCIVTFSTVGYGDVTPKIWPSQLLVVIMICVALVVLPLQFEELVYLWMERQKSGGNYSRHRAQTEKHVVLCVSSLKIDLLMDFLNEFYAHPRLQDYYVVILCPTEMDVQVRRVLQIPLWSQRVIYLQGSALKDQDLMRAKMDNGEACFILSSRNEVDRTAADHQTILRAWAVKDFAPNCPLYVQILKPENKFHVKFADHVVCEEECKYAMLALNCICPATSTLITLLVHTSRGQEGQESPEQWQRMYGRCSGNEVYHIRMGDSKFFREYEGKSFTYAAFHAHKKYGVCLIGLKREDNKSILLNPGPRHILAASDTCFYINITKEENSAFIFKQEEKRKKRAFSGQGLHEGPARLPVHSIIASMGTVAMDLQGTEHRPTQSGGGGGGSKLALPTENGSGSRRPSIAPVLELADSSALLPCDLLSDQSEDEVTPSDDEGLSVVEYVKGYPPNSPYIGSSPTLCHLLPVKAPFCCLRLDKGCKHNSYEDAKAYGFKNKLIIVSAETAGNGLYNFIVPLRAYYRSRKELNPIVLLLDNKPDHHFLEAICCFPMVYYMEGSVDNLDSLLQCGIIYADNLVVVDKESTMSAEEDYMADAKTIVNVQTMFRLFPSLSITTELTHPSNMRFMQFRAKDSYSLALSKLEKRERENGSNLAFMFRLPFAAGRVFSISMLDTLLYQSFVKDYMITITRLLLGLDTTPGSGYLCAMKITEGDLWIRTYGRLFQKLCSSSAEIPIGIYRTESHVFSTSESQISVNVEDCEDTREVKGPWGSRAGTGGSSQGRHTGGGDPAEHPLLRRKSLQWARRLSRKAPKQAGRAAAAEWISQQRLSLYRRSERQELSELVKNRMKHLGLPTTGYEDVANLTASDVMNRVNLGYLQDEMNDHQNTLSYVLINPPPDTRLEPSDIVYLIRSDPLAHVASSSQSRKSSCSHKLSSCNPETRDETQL
In this table, “A” indicates IC50 of less than or equal to 1 µM; “B” indicates inhibition of between 1 µM to 20 µM; and “C” indicates inhibition of greater than or equal to 20 µM.
(The patch-clamp technique gives a direct electrical read-out from membranes.)
`CC(C)c1cc(C(=O)N[C@@H](C)c2cc(-c3ccnc(C(F)(F)F)c3)no2)n(C)n1` (single isomer, unassigned) [Example 25, (N)-3-isopropyl-1-methyl-N-(1-(3-(2-(trifluoromethyl)pyridin-4-yl)isoxazol-5-yl)ethyl)-1H pyrazole-5-carboxamide]: the IC50 (usually the concentration that gives 50% inhibition) was ≤ 1000 nM.
In the case of `C[C@@H](NC(=O)c1cccc(C(F)(F)F)c1)c1cc(-c2ccnc(C(F)(F)F)c2)no1` (single isomer, unassigned) [Example 33], the IC50 lay within 1000 to 20000 nM.
For the compound `CC(C)c1cc(C(=O)N[C@H](C)c2cc(-c3ccnc(C(F)(F)F)c3)no2)n(C)n1` (single isomer, unassigned) [Example 24], the IC50 lay in the range of 1000 to 20000 nM.
`C[C@@H](NC(=O)c1cccc(Cl)c1)c1cc(-c2ccnc(C(F)(F)F)c2)no1` (single isomer, unassigned) [Example 20] showed a half-inhibitory concentration (IC50) of 1000 to 20000 nM.
The figure for `C[C@H](NC(=O)c1ccccc1)c1nc(-c2ccnc(C3CC3)c2)ns1` [Example 4, (S)-N-(1-(3-(2-cyclopropylpyridin-4-yl)-1,2,4-thiadiazol-5-yl)ethyl)benzamide] is ≤ 1000 nM; for `C[C@@H](NC(=O)c1cc(C(F)(F)F)nn1C)c1nc(-c2ccnc(C(F)(F)F)c2)ns1` (single isomer, unassigned) [Example 10] it is ≤ 1000 nM; for `C[C@@H](NC(=O)c1ccccc1)c1nc(-c2ccnc(C3CC3)c2)ns1` [Example 5, (R)-N-(1-(3-(2-cyclopropylpyridin-4-yl)-1,2,4-thiadiazol-5-yl)ethyl)benzamide] it is ≤ 1000 nM.
For `C[C@H](NC(=O)c1cc(C(F)(F)F)nn1C)c1nc(-c2ccnc(C3CC3)c2)ns1` (single isomer, unassigned) [Example 12], the IC50 is ≤ 1000 nM.
For the compound `C[C@H](NC(=O)c1ccccc1)c1cc(-c2ccnc(C(F)(F)F)c2)no1` (single isomer, unassigned) [Example 23], the IC50 fell in the range of 1000 to 20000 nM.
The figure for `C[C@H](NC(=O)c1cccc(Cl)c1)c1cc(-c2ccnc(C3CC3)c2)no1` (single isomer, unassigned) [Example 18] is 1000 to 20000 nM; for `C[C@H](NC(=O)c1cc(C(F)(F)F)nn1C)c1nc(-c2ccnc(C(F)(F)F)c2)ns1` (single isomer, unassigned) [Example 11] it is ≤ 1000 nM.
